Values after ≈ are worked out from the molar mass of the structure shown. Active and inactive are the calls of the source. No cut-off for these calls is given here.
Experiments:
[1] = Inhibition of HCMV DNA polymerase extracted from baculovirus infected Sf21 cells using Heterodimeric nucleic acid as substrate preincubated with enzyme for 30 mins followed by substrate and dATP addition measured after 60 mins by biotinylated UTP incorporation based AlphaLISA assay; set-up: species or system Human betaherpesvirus 5
[2] = Inhibition of VZV DNA polymerase extracted from baculovirus infected Sf21 cells using Heterodimeric nucleic acid as substrate preincubated with enzyme for 30 mins followed by substrate and dATP addition measured after 60 mins by biotinylated UTP incorporation based AlphaLISA assay; set-up: species or system Human alphaherpesvirus 3
[3] = tested on: Human betaherpesvirus 5; assay: Antiviral activity against HCMV AD169 infected in human MRC5 cells assessed as reduction in viral replication incubated for 72 hrs in presence of 50 % serum by qRT-PCR analysis; type: functional, organism-based; details: Human betaherpesvirus 5, AD169, MRC5, 72 h; read-out: EC50
[4] = tested on: Human alphaherpesvirus 3; assay: Antiviral activity against VZV Street infected in human MeWo cells assessed as reduction in viral replication incubated for 72 hrs by qRT-PCR analysis; type: functional, organism-based; details: Human alphaherpesvirus 3, Street, MeWo, 72 h; read-out: EC50
[5] = tested on: Human alphaherpesvirus 1; assay: Antiviral activity against HSV-1 F strain infected in African green monkey Vero cells assessed as reduction in viral replication incubated for 72 hrs by qRT-PCR analysis; type: functional, organism-based; details: Human alphaherpesvirus 1, F strain, Vero, 72 h; read-out: EC50
[6] = tested on: Human alphaherpesvirus 2; assay: Antiviral activity against HSV-2 G strain infected in African green monkey Vero cells assessed as reduction in viral replication incubated for 72 hrs by qRT-PCR analysis; type: functional, organism-based; details: Human alphaherpesvirus 2, G strain, Vero, 72 h; read-out: EC50
[7] = Unbound clearance in Wistar rat at 1 mg/kg,iv administration; type: ADME, organism-based; details: in vivo
[8] = Unbound volume of distribution in Wistar rat at 1 mg/kg,iv or 10 mg/kg,po administration; type: ADME, organism-based; details: in vivo
[9] = MRT in Wistar rat at 1 mg/kg,iv or 10 mg/kg,po administration; type: ADME, organism-based; details: in vivo
[10] = Oral bioavailability in Wistar rat at 10 mg/kg administration; type: ADME, organism-based; details: in vivo
[11] = Unbound AUC in Wistar rat at 1 mg/kg,iv or 10 mg/kg,po administration; type: ADME, organism-based; details: in vivo
[12] = Unbound fraction in Wistar rat plasma at 1 mg/kg,iv or 10 mg/kg,po administration; type: ADME, organism-based
[13] = target: Voltage-gated inwardly rectifying potassium channel KCNH2 (Homo sapiens, UniProt Q12809); assay: Inhibition of hERG by patch-clamp assay; type: toxicity
[14] = Inhibition of Inward-rectifier potassium channel (unknown origin); set-up: species or system Homo sapiens
[15] = target: Voltage-dependent L-type calcium channel subunit alpha-1C (Homo sapiens, UniProt Q13936); assay: Inhibition of Cav1.2 (unknown origin)
[16] = target: Sodium channel protein type 5 subunit alpha (Homo sapiens, UniProt Q14524); assay: Inhibition of Nav1.5 (unknown origin)
[17] = tested on: Human alphaherpesvirus 1; assay: Antiviral activity against HSV-1 F strain intranasally infected in BALB/c mouse assessed as increase in mouse survival at po bid administration for 7 days; type: functional, organism-based; details: time 7.0 day
[18] = tested on: Human alphaherpesvirus 1; assay: Antiviral activity against HSV-1 F strain intranasally infected in BALB/c mouse assessed as increase in mouse survival rate at 150 mg/kg,po bid administration for 7 days relative to control; type: functional; details: Human alphaherpesvirus 1, F strain, 168 h, time 7 day
[19] = tested on: Human alphaherpesvirus 1; assay: Antiviral activity against HSV-1 F strain intranasally infected in BALB/c mouse assessed as reduction in viral burden in lung at 30 to 150 mg/kg,po bid administration measured after 4 days; type: functional, organism-based; details: dose 30-150 mg/kg, time 4.0 day
[20] = tested on: Human alphaherpesvirus 1; assay: Antiviral activity against HSV-1 F strain intranasally infected in BALB/c mouse assessed as reduction in viral burden in brain at 30 to 150 mg/kg,po bid administration measured after 4 days by plaque assay; type: functional, organism-based; details: dose 30-150 mg/kg, time 4.0 day
[21] = tested on: Human alphaherpesvirus 1; assay: Antiviral activity against HSV-1 F strain intranasally infected in BALB/c mouse assessed as increase in mouse survival rate at 150 mg/kg,po bid administrated 2 days before viral infection measured after 2 days; type: functional, organism-based; details: time 2.0 day
[22] = tested on: Human alphaherpesvirus 1; assay: Antiviral activity against HSV-1 F strain intranasally infected in BALB/c mouse assessed as increase in mouse survival rate at 30 mg/kg,po bid administrated 2 days before viral infection measured after 2 days; type: functional, organism-based; details: time 2.0 day
[23] = tested on: Cytomegalovirus; assay: Antiviral activity against Cytomegalovirus Smith intraperitoneally infected in BALB/c mouse assessed as reduction in viral burden in spleen at 30 mg/kg,po bid administration measured after 4 days by plaque assay; type: functional, organism-based; details: route ip, time 4.0 day
[24] = tested on: Cytomegalovirus; assay: Antiviral activity against Cytomegalovirus Smith intraperitoneally infected in BALB/c mouse assessed as reduction in viral burden in spleen at 150 mg/kg,po bid administration measured after 4 days by plaque assay; type: functional, organism-based; details: route ip, time 4.0 day
[25] = tested on: Cytomegalovirus; assay: Antiviral activity against Cytomegalovirus Smith intraperitoneally infected in BALB/c mouse assessed as reduction in viral burden in salivary gland at 30 mg/kg,po bid administration measured after 10 days by plaque assay; type: functional, organism-based; details: route ip, time 10.0 day
[26] = tested on: Cytomegalovirus; assay: Antiviral activity against Cytomegalovirus Smith intraperitoneally infected in BALB/c mouse assessed as reduction in viral burden in salivary gland at 150 mg/kg,po bid administration measured after 10 days by plaque assay; type: functional, organism-based; details: route ip, time 10.0 day
[27] = Solubility in PBS at pH 7; type: physicochemical
[28] = Metabolic stability in human liver microsomes assessed as intrinsic clearance; type: ADME, Microsome; details: read-out: CLH

Voltage-dependent L-type calcium channel subunit alpha-1C, sequence (Q13936 whole entry): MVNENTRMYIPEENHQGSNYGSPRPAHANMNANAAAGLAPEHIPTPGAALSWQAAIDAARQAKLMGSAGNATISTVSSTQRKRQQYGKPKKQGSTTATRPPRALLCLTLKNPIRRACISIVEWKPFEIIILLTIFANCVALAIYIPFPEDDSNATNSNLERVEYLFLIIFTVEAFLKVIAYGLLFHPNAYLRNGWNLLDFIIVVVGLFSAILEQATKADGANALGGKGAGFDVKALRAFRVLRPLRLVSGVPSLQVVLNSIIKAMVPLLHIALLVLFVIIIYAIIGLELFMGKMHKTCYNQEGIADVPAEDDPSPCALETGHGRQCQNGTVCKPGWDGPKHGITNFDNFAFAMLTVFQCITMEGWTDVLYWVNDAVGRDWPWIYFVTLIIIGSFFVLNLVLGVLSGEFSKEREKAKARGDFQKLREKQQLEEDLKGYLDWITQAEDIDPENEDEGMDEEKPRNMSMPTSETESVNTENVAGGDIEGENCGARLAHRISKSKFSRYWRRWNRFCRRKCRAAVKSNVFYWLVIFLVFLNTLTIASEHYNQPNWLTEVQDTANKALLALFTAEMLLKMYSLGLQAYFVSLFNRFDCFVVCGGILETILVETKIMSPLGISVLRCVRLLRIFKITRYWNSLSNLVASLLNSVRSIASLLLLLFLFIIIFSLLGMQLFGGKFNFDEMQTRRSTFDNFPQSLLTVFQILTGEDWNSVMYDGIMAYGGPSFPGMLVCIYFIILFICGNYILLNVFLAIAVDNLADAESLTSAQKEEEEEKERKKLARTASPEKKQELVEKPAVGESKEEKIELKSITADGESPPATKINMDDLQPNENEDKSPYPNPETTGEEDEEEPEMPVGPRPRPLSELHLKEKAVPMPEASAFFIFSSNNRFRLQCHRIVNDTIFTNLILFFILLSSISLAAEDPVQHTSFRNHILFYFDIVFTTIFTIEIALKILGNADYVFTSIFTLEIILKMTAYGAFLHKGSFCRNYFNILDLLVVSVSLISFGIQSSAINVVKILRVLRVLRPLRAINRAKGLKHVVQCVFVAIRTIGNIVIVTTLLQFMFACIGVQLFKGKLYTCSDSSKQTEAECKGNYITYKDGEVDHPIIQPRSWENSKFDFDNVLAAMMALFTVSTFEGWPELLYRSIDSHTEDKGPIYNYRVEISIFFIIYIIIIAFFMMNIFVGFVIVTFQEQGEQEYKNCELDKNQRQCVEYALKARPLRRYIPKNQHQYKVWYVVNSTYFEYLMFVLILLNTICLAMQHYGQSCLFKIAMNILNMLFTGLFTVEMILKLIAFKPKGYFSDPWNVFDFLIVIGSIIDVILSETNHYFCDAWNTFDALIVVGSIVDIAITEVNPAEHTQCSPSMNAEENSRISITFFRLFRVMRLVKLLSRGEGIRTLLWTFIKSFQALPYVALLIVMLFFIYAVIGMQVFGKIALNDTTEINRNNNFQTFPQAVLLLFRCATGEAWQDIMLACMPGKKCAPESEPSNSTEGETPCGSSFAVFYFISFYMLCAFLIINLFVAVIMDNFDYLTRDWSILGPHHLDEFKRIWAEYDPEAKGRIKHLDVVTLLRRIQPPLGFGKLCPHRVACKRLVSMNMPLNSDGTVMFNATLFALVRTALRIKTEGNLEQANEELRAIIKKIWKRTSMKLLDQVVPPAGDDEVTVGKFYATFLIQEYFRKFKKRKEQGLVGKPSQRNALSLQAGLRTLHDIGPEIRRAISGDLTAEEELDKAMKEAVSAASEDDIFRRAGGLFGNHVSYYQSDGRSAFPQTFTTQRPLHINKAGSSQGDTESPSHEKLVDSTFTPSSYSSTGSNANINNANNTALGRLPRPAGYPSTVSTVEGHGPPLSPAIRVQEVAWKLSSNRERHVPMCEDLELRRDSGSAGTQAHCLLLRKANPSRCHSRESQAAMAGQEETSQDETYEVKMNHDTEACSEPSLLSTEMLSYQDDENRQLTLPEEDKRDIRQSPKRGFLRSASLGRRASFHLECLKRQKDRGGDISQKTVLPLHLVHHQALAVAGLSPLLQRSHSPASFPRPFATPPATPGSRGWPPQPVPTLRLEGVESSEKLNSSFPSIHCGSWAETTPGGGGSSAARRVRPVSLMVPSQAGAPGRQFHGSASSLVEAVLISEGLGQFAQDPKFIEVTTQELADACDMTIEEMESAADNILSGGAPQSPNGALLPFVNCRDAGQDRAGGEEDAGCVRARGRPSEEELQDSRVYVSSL
Sodium channel protein type 5 subunit alpha, sequence (Q14524 whole entry): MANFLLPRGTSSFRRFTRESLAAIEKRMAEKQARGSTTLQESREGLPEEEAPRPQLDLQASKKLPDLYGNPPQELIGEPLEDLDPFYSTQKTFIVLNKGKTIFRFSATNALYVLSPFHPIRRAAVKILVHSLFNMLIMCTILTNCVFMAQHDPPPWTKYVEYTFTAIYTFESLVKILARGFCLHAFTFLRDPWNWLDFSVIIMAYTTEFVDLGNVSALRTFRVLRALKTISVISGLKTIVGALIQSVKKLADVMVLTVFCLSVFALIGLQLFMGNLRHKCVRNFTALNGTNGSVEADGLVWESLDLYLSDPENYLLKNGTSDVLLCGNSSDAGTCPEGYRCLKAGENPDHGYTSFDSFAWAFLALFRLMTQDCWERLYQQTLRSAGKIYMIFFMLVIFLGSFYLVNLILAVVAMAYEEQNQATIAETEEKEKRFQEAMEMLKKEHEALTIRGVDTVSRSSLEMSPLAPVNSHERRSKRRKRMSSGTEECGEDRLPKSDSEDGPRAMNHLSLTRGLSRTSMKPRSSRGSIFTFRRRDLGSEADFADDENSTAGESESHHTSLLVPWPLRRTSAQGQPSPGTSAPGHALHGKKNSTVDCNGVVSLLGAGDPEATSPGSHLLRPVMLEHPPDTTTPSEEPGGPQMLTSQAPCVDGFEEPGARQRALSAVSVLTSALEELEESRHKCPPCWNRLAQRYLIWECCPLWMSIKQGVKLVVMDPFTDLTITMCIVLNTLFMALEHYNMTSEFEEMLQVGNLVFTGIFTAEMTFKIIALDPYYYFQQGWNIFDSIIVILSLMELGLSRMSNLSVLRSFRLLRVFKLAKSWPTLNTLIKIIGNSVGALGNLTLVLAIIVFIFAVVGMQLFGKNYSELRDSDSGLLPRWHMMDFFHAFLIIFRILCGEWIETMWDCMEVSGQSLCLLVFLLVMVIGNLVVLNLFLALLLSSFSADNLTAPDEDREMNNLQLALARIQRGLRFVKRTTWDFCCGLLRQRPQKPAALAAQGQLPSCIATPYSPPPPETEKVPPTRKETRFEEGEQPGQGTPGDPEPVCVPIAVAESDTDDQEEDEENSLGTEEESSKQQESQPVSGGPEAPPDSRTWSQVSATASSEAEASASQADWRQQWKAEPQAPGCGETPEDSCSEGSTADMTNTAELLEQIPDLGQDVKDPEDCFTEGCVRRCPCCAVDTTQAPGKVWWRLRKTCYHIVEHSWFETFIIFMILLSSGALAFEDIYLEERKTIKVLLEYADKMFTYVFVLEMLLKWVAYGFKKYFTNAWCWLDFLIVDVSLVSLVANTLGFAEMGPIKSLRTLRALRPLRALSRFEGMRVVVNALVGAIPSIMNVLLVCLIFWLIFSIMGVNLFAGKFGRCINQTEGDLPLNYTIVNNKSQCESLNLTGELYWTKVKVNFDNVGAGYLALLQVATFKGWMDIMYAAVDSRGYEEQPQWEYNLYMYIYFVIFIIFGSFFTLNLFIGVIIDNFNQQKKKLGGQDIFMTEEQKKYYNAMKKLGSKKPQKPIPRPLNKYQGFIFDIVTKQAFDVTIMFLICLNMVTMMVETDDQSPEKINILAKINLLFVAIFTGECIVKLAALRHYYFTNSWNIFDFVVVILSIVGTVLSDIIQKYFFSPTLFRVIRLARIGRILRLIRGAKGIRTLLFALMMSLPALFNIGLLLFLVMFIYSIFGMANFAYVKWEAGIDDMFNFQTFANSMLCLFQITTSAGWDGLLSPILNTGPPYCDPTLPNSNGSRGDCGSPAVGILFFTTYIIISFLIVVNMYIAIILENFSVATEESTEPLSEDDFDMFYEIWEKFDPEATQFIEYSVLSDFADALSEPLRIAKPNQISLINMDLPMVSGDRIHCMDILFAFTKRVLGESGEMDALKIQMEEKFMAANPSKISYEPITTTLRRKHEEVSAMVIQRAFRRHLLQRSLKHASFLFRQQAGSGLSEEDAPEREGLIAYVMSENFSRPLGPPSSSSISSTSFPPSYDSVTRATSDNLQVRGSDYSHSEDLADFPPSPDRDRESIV

COc1cc(NC(=O)Cc2ccc(C(F)(F)F)cc2)ccc1C[C@H]1COC(=O)N1
IC50 [1]: 22 nM | IC50 [2]: 13 nM | EC50 [3]: 641 nM | EC50 [4]: 126 nM | EC50 [5]: 115 nM | EC50 [6]: 114 nM | CL free [7]: 187 mL/min/kg | Vdu [8]: 20 L/kg | MRT [9]: 1.8 h | bioavailability [10]: 71% | fAUC [11]: 0.222 µM·h | fraction unbound [12]: 0.052 | IC50 [13]: 27000 nM | IC50 [14]: 25100 nM | IC50 [15]: 7600 nM | IC50 [16]: 13200 nM | Activity [17]: Dose-Dependent Effect | survival at 150 mg/kg [18]: 100% | Activity [19]: Active | Activity [20]: Active | Activity [21]: Active | Activity [22]: Active | Activity [23]: inactive | Activity [24]: Active | Activity [25]: inactive | Activity [26]: Active | solubility [27]: 129 µM (≈ 52.7 µg/mL) | CLint scaled [28]: 20 mL/min/kg

Reference: ChEMBL document CHEMBL5579865, “Discovery of Broad-Spectrum Herpes Antiviral Oxazolidinone Amide Derivatives and Their Structure-Activity Relationships” (ACS Med Chem Lett, 2024)
